Experiments:
[1] = estimated; called medium value
[2] = not given; remark: listed apart in the source

- dissociation constant (pK) [1]: > 3.3
- solubility (variety of organic solvents, including solvents containing polymers): soluble in a variety of organic solvents
- light stability ([2]; as a solid): light stable
- photostability ([2]; present in a coating): not photostable
SMILES: CCCCNC(=O)[N-]S(=O)(=O)c1ccc(C)cc1.[Ag+] [AgTol, silver tolbutamide]
- solubility compared with silver sulfadiazine (relative to silver sulfadiazine): considerably greater than that of silver sulfadiazine
